The subject of the assay is BDF1 mice, s.c. Lewis lung carcinoma, T/C %. Kind of assay: NCI In Vivo Anticancer Drug Screen. Data for tumor model Lewis Lung Carcinoma (subcutaneous) in B6D2F1 (BDF1) mice. In short, it runs like this: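 First, mice carry a transplantable tumor. Next, groups receive either compound or vehicle. Finally, survival or tumor dimensions in the dosed animals are divided by the corresponding control figure.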

Where [1] appears, read: endpoint: mean tumor weight, dose: 25.0 mg/kg/injection, schedule: Q01DX011 (ip), vehicle: carboxymethylcellulose (CMC), higher = larger tumour.
The mark [2] stands for this setting: endpoint: mean tumor weight, dose: 50.0 mg/kg/injection, schedule: Q01DX011 (ip), vehicle: carboxymethylcellulose (CMC), higher = larger tumour.
Where [3] appears, read: endpoint: median survival time, dose: 1.0 mg/kg/injection, schedule: Q01DX009 (ip), vehicle: saline with Tween-80, higher = longer survival.
[4] abbreviates: endpoint: median survival time, dose: 2.0 mg/kg/injection, schedule: Q01DX009 (ip), vehicle: saline with Tween-80, higher = longer survival.
[5] abbreviates: endpoint: median survival time, dose: 25.0 mg/kg/injection, schedule: Q01DX009 (ip), vehicle: Klucel (hydroxypropylcellulose) (HPC), higher = longer survival.
Where [6] appears, read: endpoint: median survival time, dose: 25.0 mg/kg/injection, schedule: Q01DX009 (ip), vehicle: saline with Tween-80, higher = longer survival.
Where [7] appears, read: endpoint: median survival time, dose: 50.0 mg/kg/injection, schedule: Q01DX009 (ip), vehicle: Klucel (hydroxypropylcellulose) (HPC), higher = longer survival.
[8] abbreviates: endpoint: median survival time, dose: 50.0 mg/kg/injection, schedule: Q01DX009 (ip), vehicle: saline with Tween-80, higher = longer survival.
The mark [9] stands for this setting: endpoint: median survival time, dose: 100.0 mg/kg/injection, schedule: Q01DX009 (ip), vehicle: saline with Tween-80, higher = longer survival.
Setting [10] is: endpoint: median survival time, dose: 12.5 mg/kg/injection, schedule: Q01DX009 (ip), vehicle: Klucel (hydroxypropylcellulose) (HPC), higher = longer survival.
The mark [11] stands for this setting: endpoint: median survival time, dose: 6.25 mg/kg/injection, schedule: Q01DX009 (ip), vehicle: saline with Tween-80, higher = longer survival.
[12] abbreviates: endpoint: median survival time, dose: 12.5 mg/kg/injection, schedule: Q01DX009 (ip), vehicle: saline with Tween-80, higher = longer survival.

Where “and” joins values, the source holds several entries; their conditions need not be identical. Equal values may be shown once. Records with an inconclusive call do not appear.

As for `C=CCNc1ccc(C)cc1`, the T/C (endpoint: mean tumor weight, dose: 12.5 mg/kg/injection, schedule: Q01DX011 (ip), vehicle: carboxymethylcellulose (CMC), higher = larger tumour) is 92 % of control; the T/C under setting [1] is 93 % of control; the T/C under setting [2] was 37 % of control; the T/C (endpoint: mean tumor weight, dose: 100.0 mg/kg/injection, schedule: Q01DX011 (ip), vehicle: carboxymethylcellulose (CMC), higher = larger tumour) is 5 % of control.
`Oc1cc(O)c2c(c1)O[C@H](c1ccc(O)c(O)c1)[C@@H](O)C2`: the T/C reads like this: (endpoint: mean tumor weight, dose: 50.0 mg/kg/injection, schedule: Q01DX011 (ip), vehicle: saline, higher = larger tumour) 76 % of control; (endpoint: mean tumor weight, dose: 100.0 mg/kg/injection, schedule: Q01DX011 (ip), vehicle: saline, higher = larger tumour) 94 % of control; (endpoint: mean tumor weight, dose: 200.0 mg/kg/injection, schedule: Q01DX011 (ip), vehicle: saline, higher = larger tumour) 72 % of control; (endpoint: mean tumor weight, dose: 400.0 mg/kg/injection, schedule: Q01DX011 (ip), vehicle: saline, higher = larger tumour) 74 % of control.
On to `Cc1ccc(NC(=O)c2ccccc2)cc1[As]=[As]c1cc(NC(=O)c2ccccc2)ccc1C` (stereo unspecified), for which the T/C is, setting by setting: (endpoint: median survival time, dose: 0.63 mg/kg/injection, schedule: Q01DX009 (ip), vehicle: Klucel (hydroxypropylcellulose) (HPC), higher = longer survival) 100 % of control; (endpoint: median survival time, dose: 1.25 mg/kg/injection, schedule: Q01DX009 (ip), vehicle: Klucel (hydroxypropylcellulose) (HPC), higher = longer survival) 100 % of control.
On to `COc1cc(C2c3cc4c(cc3CC3COC(=O)C32)OCO4)cc(OC)c1O` (stereo unspecified), for which the T/C is 104 % of control (endpoint: median survival time, dose: 0.5 mg/kg/injection, schedule: Q01DX009 (ip), vehicle: saline with Tween-80, higher = longer survival); 101 % of control under setting [3]; 107 % of control under setting [4].
Take `Cc1cc(N(CCCl)CCCl)ccc1C=Nc1cccnc1`: the T/C was 104 % of control under setting [5]; 95 % of control under setting [6]; 96 % of control under setting [7]; 92 % of control under setting [8]; 103 % of control (endpoint: median survival time, dose: 100.0 mg/kg/injection, schedule: Q01DX009 (ip), vehicle: Klucel (hydroxypropylcellulose) (HPC), higher = longer survival); 93 % of control under setting [9]. In addition, the T/C (endpoint: median survival time, dose: 200.0 mg/kg/injection, schedule: Q01DX009 (ip), vehicle: Klucel (hydroxypropylcellulose) (HPC), higher = longer survival) is 98 % of control.
Consider `C=C1C(=O)O[C@@H]2[C@H]3O[C@]3(C)CCC=C(C)CC[C@@H]12`, for which the T/C is 110 % of control under setting [10], 97 % of control under setting [5] and 93 % of control under setting [7].
On to `CC(=O)[C@H]1CC[C@H]2[C@@H]3CC[C@@H]4CC(=O)CC[C@]4(C)[C@H]3[C@@H]3O[C@@H]3[C@]12C`, for which the T/C by setting is: (endpoint: mean tumor weight, dose: 37.0 mg/kg/injection, schedule: Q01DX011 (ip), vehicle: other, higher = larger tumour) 150 % of control; (endpoint: mean tumor weight, dose: 55.0 mg/kg/injection, schedule: Q01DX011 (ip), vehicle: other, higher = larger tumour) 99 % of control; (endpoint: mean tumor weight, dose: 83.0 mg/kg/injection, schedule: Q01DX011 (ip), vehicle: other, higher = larger tumour) 108 % of control; (endpoint: mean tumor weight, dose: 250.0 mg/kg/injection, schedule: Q01DX011 (ip), vehicle: other, higher = larger tumour) 122 % of control.
For the compound `CCOC(=O)C(CC(C)C)NC(=O)C(Cc1ccc(N(CCCl)CCCl)cc1)NC(C)=O` (stereo unspecified), the T/C reads like this: under setting [3], 88 % of control; under setting [4], 95 % of control; (endpoint: median survival time, dose: 4.0 mg/kg/injection, schedule: Q01DX009 (ip), vehicle: saline with Tween-80, higher = longer survival) 111 % of control; (endpoint: median survival time, dose: 8.0 mg/kg/injection, schedule: Q01DX009 (ip), vehicle: saline with Tween-80, higher = longer survival) 108 % of control; (endpoint: median survival time, dose: 16.0 mg/kg/injection, schedule: Q01DX009 (ip), vehicle: saline with Tween-80, higher = longer survival) 116 % of control.
Consider `Cc1cnc(/C=N\NC(N)=S)c2cccc(N)c12`, for which the T/C was 112 % of control (endpoint: median survival time, dose: 6.25 mg/kg/injection, schedule: Q01DX009 (ip), vehicle: Klucel (hydroxypropylcellulose) (HPC), higher = longer survival); 106 % of control under setting [11]; 90 % of control under setting [10]; 110 % of control under setting [12]; 86 % of control under setting [5]; 117 % of control under setting [6]. The T/C under setting [7] was 95 % of control.
Take `NC(=S)N/N=C/c1cc(-c2cccc(N)c2)ccn1`: the T/C under setting [11] is 106 % of control; the T/C under setting [12] was 102 % of control and 106 % of control; the T/C under setting [6] was 117 % of control and 119 % of control; the T/C under setting [8] was 87 % of control and 123 % of control.
As to `N#Cc1ccc(NC(=O)N(CCCl)N=O)cc1`, the T/C was 83 % of control (endpoint: median tumor weight (est.), dose: 13.0 mg/kg/injection, schedule: Q01DX001 (ip), vehicle: Klucel (hydroxypropylcellulose) (HPC), higher = larger tumour); 118 % of control (endpoint: median tumor weight (est.), dose: 19.0 mg/kg/injection, schedule: Q01DX001 (ip), vehicle: Klucel (hydroxypropylcellulose) (HPC), higher = larger tumour); 109 % of control (endpoint: median tumor weight (est.), dose: 29.0 mg/kg/injection, schedule: Q01DX001 (ip), vehicle: Klucel (hydroxypropylcellulose) (HPC), higher = larger tumour); 73 % of control (endpoint: median tumor weight (est.), dose: 44.0 mg/kg/injection, schedule: Q01DX001 (ip), vehicle: Klucel (hydroxypropylcellulose) (HPC), higher = larger tumour); 39 % of control (endpoint: median tumor weight (est.), dose: 67.0 mg/kg/injection, schedule: Q01DX001 (ip), vehicle: Klucel (hydroxypropylcellulose) (HPC), higher = larger tumour).
On to `S=C([S][Sn]([c]1ccccc1)([c]1ccccc1)[c]1ccccc1)N1CCCCC1`, for which the T/C was 102 % of control (endpoint: median survival time, dose: 3.12 mg/kg/injection, schedule: Q01DX009 (ip), vehicle: saline with Tween-80, higher = longer survival); 94 % of control under setting [12]; 89 % of control under setting [6].
For `CC(=O)N(C)C(C(=O)N1CC(C)CC1C(=O)N(C)C1C(=O)NC(CC(C)C)C(=O)N2CC(C)CC2C(=O)NC(CC(C)C)C(=O)N(C)C(C(C)C)C(=O)N2CCCC2C(=O)N(C)C(CC(C)C)C(=O)NCC(=O)OC1C)C(C)C` (stereo unspecified), the T/C reads like this: (endpoint: median survival time, dose: 9.4 mg/kg/injection, schedule: Q01DX009 (ip), vehicle: Klucel (hydroxypropylcellulose) (HPC), higher = longer survival) 94 % of control; (endpoint: median survival time, dose: 18.75 mg/kg/injection, schedule: Q01DX009 (ip), vehicle: Klucel (hydroxypropylcellulose) (HPC), higher = longer survival) 98 % of control; (endpoint: median survival time, dose: 37.5 mg/kg/injection, schedule: Q01DX009 (ip), vehicle: Klucel (hydroxypropylcellulose) (HPC), higher = longer survival) 96 % of control.
Consider `O=C1c2c(Cl)c(Cl)c(Cl)c(Cl)c2C(=O)N1c1nccs1`, for which the T/C is, setting by setting: under setting [1], 62 % of control; under setting [2], 50 % of control.
As to `NC(=S)N/N=C\c1nccc2c(N)cccc12`, the T/C reads like this: under setting [11], 107 % of control and 110 % of control; under setting [12], 94 % of control and 113 % of control; under setting [6], 112 % of control and 117 % of control; under setting [8], 105 % of control; (endpoint: median survival time, dose: 75.0 mg/kg/injection, schedule: Q01DX009 (ip), vehicle: saline with Tween-80, higher = longer survival) 110 % of control and 124 % of control.
`CCCCn1cnc2c(SC)ncnc21`: the T/C by setting is: under setting [6], 89 % of control; under setting [8], 94 % of control; under setting [9], 94 % of control.
On to `O=NN(CCCl)C(=O)NC1CCCC1`, for which the T/C (endpoint: median tumor weight (est.), dose: 33.0 mg/kg/injection, schedule: Q01DX001 (ip), vehicle: saline, higher = larger tumour) was 62 % of control; the T/C (endpoint: median tumor weight (est.), dose: 67.0 mg/kg/injection, schedule: Q01DX001 (ip), vehicle: saline, higher = larger tumour) was 76 % of control; the T/C (endpoint: median tumor weight (est.), dose: 100.0 mg/kg/injection, schedule: Q01DX001 (ip), vehicle: saline, higher = larger tumour) is 56 % of control.
`CNc1nc(N(C)C)nc(N(C)C)n1`: the T/C by setting is: (endpoint: median survival time, dose: 67.0 mg/kg/injection, schedule: Q01DX009 (ip), vehicle: water, higher = longer survival) 91 % of control; (endpoint: median survival time, dose: 100.0 mg/kg/injection, schedule: Q01DX009 (ip), vehicle: water, higher = longer survival) 116 % of control.
For `COc1ccccc1-c1cc(=O)c2ccc(OC)c(OC)c2o1`, the T/C is 99 % of control (endpoint: mean tumor weight, dose: 18.8 mg/kg/injection, schedule: Q01DX010 (ip), vehicle: saline, higher = larger tumour); 81 % of control (endpoint: mean tumor weight, dose: 37.5 mg/kg/injection, schedule: Q01DX010 (ip), vehicle: saline, higher = larger tumour); 108 % of control (endpoint: mean tumor weight, dose: 75.0 mg/kg/injection, schedule: Q01DX010 (ip), vehicle: saline, higher = larger tumour); 76 % of control (endpoint: mean tumor weight, dose: 150.0 mg/kg/injection, schedule: Q01DX010 (ip), vehicle: saline, higher = larger tumour).
In the case of `CCN(CC)c1nc(N(CC)CC)nc(N(CC)CC)n1`, the T/C runs as follows: under setting [6], 95 % of control; under setting [8], 105 % of control; under setting [9], 95 % of control; (endpoint: median survival time, dose: 200.0 mg/kg/injection, schedule: Q01DX009 (ip), vehicle: saline with Tween-80, higher = longer survival) 104 % of control; (endpoint: median survival time, dose: 400.0 mg/kg/injection, schedule: Q01DX009 (ip), vehicle: saline with Tween-80, higher = longer survival) 89 % of control.
For the compound `Nc1cc(Cl)cc(Cl)c1`, the T/C runs as follows: (endpoint: mean tumor weight, dose: 29.0 mg/kg/injection, schedule: Q01DX011 (ip), vehicle: other, higher = larger tumour) 90 % of control; (endpoint: mean tumor weight, dose: 44.0 mg/kg/injection, schedule: Q01DX011 (ip), vehicle: other, higher = larger tumour) 65 % of control; (endpoint: mean tumor weight, dose: 66.0 mg/kg/injection, schedule: Q01DX011 (ip), vehicle: other, higher = larger tumour) 98 % of control.

These data come from PubChem BioAssay AID270 (DTP/NCI, 2004).
